Bounds are passed on as bounds.

The test system of assay [1] is MMP1 expression by complex trigger activated SFs. In words: MMP assay: MMP1 expression (ELISA) by SFs activated with the 'complex trigger'. The format is cell-based. The settings on record: Homo sapiens; SFs activated with supernatant of TNF-α-treated THP-1 cells (complex trigger), 48 hrs, FIG. 3; read-out: IC50 of reduction of MMP1 expression by SFs. The method, then: A 384-well format ELISA for measurement of MMP1 is developed. Various primary antibodies are tested, as well as various ELISA protocols. The following protocol is developed and validated to measure MMP1 levels in SF supernatant in 384 well plates: white Lumitrac 600 384 well plates (Greiner) are coated with 2 μg/mL anti-MMP1 antibody MAB1346 (Chemicon). The antibody is diluted in buffer 40 (1.21 g Tris base (Sigma), 0.58 g NaCl (Calbiochem) and 5 mL 10% NaN3 (Sigma) in 1 L milliQ water and adjusted to pH 8.5). After overnight incubation at 4° C., plates are washed with PBS (80 g NaCl, 2 g KCl (Sigma), 11.5 g Na2HPO4.7H2O and 2 g KH2PO4 in 10 L milliQ; pH 7.4) and blocked with 100 μL/well Casein buffer (2% Casein (VWR International) in PBS). Next day, casein buffer is removed from ELISA plates and replaced by 50 μL/well EC buffer (4 g casein, 2.13 g Na2HPO4 (Sigma), 2 g bovine albumin (Sigma), 0.69 g NaH2PO4.H2O (Sigma), 0.5 g CHAPS (Roche), 23.3 g NaCl, 4 mL 0.5 M EDTA pH 8 (Invitrogen), 5 mL 10% NaN3 in 1 L milliQ and adjusted to pH 7.0). 0.25 mM DTT (Sigma) is added to the thawed sample plates. After removal of the EC buffer, 20 μL of sample is transferred to the ELISA plates. […] Readout is performed on the Luminoscan Ascent Luminometer (Labsystems) with an integration time of 200 msec or with an Envision reader (Perkin Elmer). […]

For another assay, the target named is T1, TAK1-TAB1 fusion protein (Homo sapiens, UniProt O43318).
T1 construct: purchased Upstate 14-600
T1 sequence (O43318 with tags, fused parts or gaps limits assumed): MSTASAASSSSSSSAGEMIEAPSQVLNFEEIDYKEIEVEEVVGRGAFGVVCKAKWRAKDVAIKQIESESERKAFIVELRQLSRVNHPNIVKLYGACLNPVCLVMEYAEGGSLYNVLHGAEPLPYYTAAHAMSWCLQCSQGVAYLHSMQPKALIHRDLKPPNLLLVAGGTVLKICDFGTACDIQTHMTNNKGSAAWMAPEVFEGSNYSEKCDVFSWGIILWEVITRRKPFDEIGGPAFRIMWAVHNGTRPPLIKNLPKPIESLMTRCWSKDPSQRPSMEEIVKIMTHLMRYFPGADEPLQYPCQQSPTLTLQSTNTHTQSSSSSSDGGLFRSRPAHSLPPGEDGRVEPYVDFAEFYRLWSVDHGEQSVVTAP
In words: In vitro TAK1 kinase assay (33P-ATP, casein substrate). Conditions: semi-quantitative score, at least two independent experiments. The format is biochemical. An outline of the steps:
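Radiometric assay with active TAK1-TAB1 fusion protein (0.5 mU), 0.1 mg/mL casein, ATP at 5 µM plus [33P]-γ-ATP, in 10 mM MOPS pH 7.0, 1 mM EDTA. Reactions ran 90 min at 30 °C, were stopped with phosphoric acid and filter-counted; percent inhibition from ≥2 experiments gave semi-quantitative potency scores.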

Assay [2] relates to MMP1 expression from activated SFs (RASF). The experiment in a line: MMP assay: MMP1 expression (ELISA) by TNF-α-triggered RASFs. The assay is classed as cell-based. The settings on record: RASF triggered with TNFα, MMP1 ELISA after 48 hrs, semi-quantitative score. An outline of the steps: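 Rheumatoid arthritis synovial fibroblasts (passage 10–12) were preincubated 90 min with compound in M199 with 1% FBS, then stimulated with TNF-α (10 ng/mL final) or complex trigger (12.5% final) for 48 h. MMP1 in the supernatant was quantified by sandwich luminescence ELISA. Controls were stimulated cells with 0.2% DMSO vehicle and unstimulated cells.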

For the compound `C[C@@H]1C[C@H]2[C@@H]3CCC4=CC(=O)C=C[C@]4(C)[C@@]3(F)[C@@H](O)C[C@]2(C)[C@@]1(O)C(=O)CO` [dexamethasone], the IC50 in assay [1] was roughly 1 nM.

Turning to `CC(=O)N(C)C1CCN(C(=O)c2ccc(Nc3ccc(-c4ccc5c(c4)CNC5=O)n4ccnc34)cc2)C1` (stereo not drawn) [Compound 42, N-methyl-N-(1-(4-(5-(1-oxoisoindolin-5-yl)imidazo[1,2-a]pyridin-8-ylamino)benzoyl)pyrrolidin-3-yl)acetamide], the IC50 at TAK1-TAB1 fusion protein was 101 to 1000 nM. Further, in assay [2], the 50% effective concentration (EC50) is greater than 3 µM.

For the origin of these results see patent publication US20120010206A1, “IMIDAZOLOPYRIDINE COMPOUNDS USEFUL FOR THE TREATMENT OF DEGENERATIVE AND INFLAMMATORY DISEASES” (priority 2006, published 2012).
